# Values of other authors, collected in patent US20210205361A1, “COMPOSITIONS AND METHODS FOR CANCER IMMUNOTHERAPY” (priority 2016, published 2021).
# Legend:
# [1] = system: advanced, treatment-refractory malignancies; conditions: subjects with non-small cell lung cancer (NSCLC)
# [2] = system: recurrent multifocal GBM; conditions: two pediatric patients refractory to standard therapies
# [3] = system: diffuse large B-cell lymphoma (DLBCL)
substance,measurement,setting,value
BMS-936558: fully human IgG4 monoclonal antibody targeting PD-1,clinical activity,[1],substantial clinical activity
"nivolumab: immune checkpoint inhibitor, anti-PD1 antibody",response,[2],remarkable and durable responses
CT-011: humanized IgG1 monoclonal antibody against PD-1,subjects progression-free at the end of the follow-up period,"[3]; DLBCL subjects after autologous stem cell transplantation, control group 47%",70%
same,subjects alive,"[3]; DLBCL subjects after autologous stem cell transplantation, control group 62%",82%
same,activity of natural killer cells,[3]; finding of the phase II trial,augments
